# Reference: patent publication US8008304B2, “Substituted propiolic acid amides and their use for producing drugs” (Grüenthal GmbH, priority 2005, dated 2011)
# Where a name gives a salt, the structure may show the parent alone.
# Target: T1, mGluR5 receptor (Sus scrofa, UniProt I3LUI7)
# T1 construct: from tissue; host or cells: pig brain halves without medulla, cerebellum and pons
# Assay: Inhibition of [3H]-MPEP bond in the mGluR5 receptor bond assay (pig brain homogenate)
# Format: binding
# Conditions: 450 μg protein from pig brain homogenate, 5 nM [3H]-MPEP, 60 min, room temperature
# Procedure: Substituted propiolic acid amides of the above-mentioned general formula I are likewise particularly preferred, which, after 60 minutes of incubation in 450 μg protein from pig brain homogenate at a temperature between 20° C. and 25° C. in a concentration of less than 2000 nM, preferably of less than 1000 nM, particularly preferably of less than 700 nM, very particularly preferably of less than 100 nM, even more preferably of less than 30 nM, bring about a 50-percent displacement of [^3H]-2-methyl-6-(3-methoxyphenyl)-ethynylpyridine which is present in a concentration of 5 nM.
# Thereby, the determination of the displacement of [^3H]-2-methyl-6-(3-methoxyphenyl)-ethynylpyridine is performed as described in the section Pharmacological Methods, I. Method for determining the inhibition of [^3H]-MPEP-bonding in the mGluR5 receptor bonding assay.
# I. Method for Determining the Inhibition of the [^3H]-MPEP Bond in the mGluR5 Receptor Bond Assay
# Pig brain homogenate is produced by homogenisation (Polytron PT 3000, Kinematica AG, 10,000 rpm for 90 seconds) of pig brain halves without medulla, cerebellum and pons in buffer pH 8.0 (30 mM Hepes, Sigma, order no. H3375+1 tablet complete to 100 ml, Roche Diagnostics, order no. 1836145) in ratio 1:20 (brain weight/volume) and differential centrifugation at 900×g and 40,000×g. In each case, 450 μg protein from brain homogenate is incubated with 5 nM ^3[H]-MPEP (Tocris, order no. R1212) (MPEP=2-methyl-6-(3-methoxyphenyl)-ethynylpyridine) in 250 μl incubation batches in 96 well microtitration plates and the compounds to be tested (10 μM in the test) in buffer (as above) at room temperature for 60 min.
# Thereafter, the batches are filtered with the help of a Brandel Cell Harvester (Brandel, TYP Robotic 9600) on unifilter plates with glass fibre filter mats (Perkin Elmer, order no. 6005177) and subsequently washed with buffer (as above) 3 times with in each case 250 μl per sample. The filter plates are subsequently dried for 60 min at 55° C. 30 μL Ultima Gold™ scintillator is subsequently added per well (Packard BioScience, order no. 6013159) and the samples are measured after 3 hours on the β-counter (Mikrobeta, Perkin Elmer). The unspecific bond is determined by addition of 10 μM MPEP (Tocris, order no. 1212).
# T1 sequence (I3LUI7 19-1212): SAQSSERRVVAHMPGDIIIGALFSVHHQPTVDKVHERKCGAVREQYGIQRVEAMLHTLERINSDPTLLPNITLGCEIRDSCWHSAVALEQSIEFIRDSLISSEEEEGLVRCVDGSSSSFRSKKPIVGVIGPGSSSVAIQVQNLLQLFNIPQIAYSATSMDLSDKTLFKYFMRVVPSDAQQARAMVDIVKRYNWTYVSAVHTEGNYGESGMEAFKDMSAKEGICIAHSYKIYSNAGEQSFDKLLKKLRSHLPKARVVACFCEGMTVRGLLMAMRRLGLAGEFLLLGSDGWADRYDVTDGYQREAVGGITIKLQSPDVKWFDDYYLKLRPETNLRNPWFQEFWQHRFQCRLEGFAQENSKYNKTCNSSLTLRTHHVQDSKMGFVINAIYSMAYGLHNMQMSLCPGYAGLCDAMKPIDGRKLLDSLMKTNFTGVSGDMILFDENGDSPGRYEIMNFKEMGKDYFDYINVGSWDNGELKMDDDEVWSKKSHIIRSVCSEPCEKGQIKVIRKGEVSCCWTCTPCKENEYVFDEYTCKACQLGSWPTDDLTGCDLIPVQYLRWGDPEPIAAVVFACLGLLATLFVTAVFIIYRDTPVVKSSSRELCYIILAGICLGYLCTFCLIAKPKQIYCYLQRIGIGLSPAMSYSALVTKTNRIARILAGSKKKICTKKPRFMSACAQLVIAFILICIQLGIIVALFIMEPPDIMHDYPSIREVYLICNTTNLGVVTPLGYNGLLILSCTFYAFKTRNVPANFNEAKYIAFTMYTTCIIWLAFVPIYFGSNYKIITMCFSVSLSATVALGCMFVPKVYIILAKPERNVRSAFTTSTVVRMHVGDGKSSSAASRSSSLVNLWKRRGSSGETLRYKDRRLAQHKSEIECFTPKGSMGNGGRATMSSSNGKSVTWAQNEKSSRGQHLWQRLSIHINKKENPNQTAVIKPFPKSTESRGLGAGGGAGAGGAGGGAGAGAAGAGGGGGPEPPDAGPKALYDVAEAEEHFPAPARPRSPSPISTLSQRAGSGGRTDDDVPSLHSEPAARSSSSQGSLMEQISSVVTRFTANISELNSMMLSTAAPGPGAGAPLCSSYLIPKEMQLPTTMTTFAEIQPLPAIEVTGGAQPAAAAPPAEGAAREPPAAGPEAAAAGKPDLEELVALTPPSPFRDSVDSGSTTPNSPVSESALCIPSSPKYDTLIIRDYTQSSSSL
row,IC50,SMILES
1,630 nM,"O=C(C#Cc1ccccc1)N1CCN(c2cscn2)CC1 [Example 2, 1-(3-Phenyl-propiolyl)-4-(thiazol-4-yl)-piperazine]"
2,4840 nM,"Cn1ccnc1N1CCN(C(=O)C#Cc2ccccc2)CC1 [Example 3, 1-(3-phenyl-propiolyl)-4-(1-methyl-imidazol-2-yl)-piperazine hydrochloride]"
3,16 nM,"C[C@@H]1CN(c2cscn2)CCN1C(=O)C#Cc1cccc(Cl)c1 [Example 4, (R)-2-methyl-1-(3-(3-chloro-phenyl)-propiolyl)-4-(thiazol-4-yl)-piperazine]"
4,0.5 nM,"CN(CCNC(=O)C#Cc1cccc(Cl)c1)c1cncs1 [Example 7, 3-(3-chlorophenyl)-N-(2-(methyl(thiazol-5-yl)amino)ethyl)propiolamide]"
5,350 nM,"CN(CCNC(=O)C#Cc1cccc(Cl)c1)c1nccn1C [Example 8, 3-(3-chlorophenyl)-N-(2-(methyl(1-methyl-1H-imidazol-2-yl)amino)ethyl)propiolamide]"

# Continued, compound first:
row,SMILES,IC50
1,"O=C(C#Cc1ccccc1)N1CCN(c2ccsc2)CC1 [Example 1, 1-(3-phenyl-propiolyl)-4-(thiophene-3-yl)-piperazine hydrochloride]",1890 nM
2,"CC1CN(c2nncs2)CCN1C(=O)C#Cc1cccc(Cl)c1 (stereo not drawn) [Example 5, 2-methyl 1-(3-(3-chloro-phenyl)-propiolyl)-4-(1,3,4-thiadiazol-2-yl)-piperazine]",27 nM
3,"CN(CCNC(=O)C#Cc1cccc(Cl)c1)c1nncs1 [Example 6, 3-(3-chlorophenyl)-N-(2-(methyl(1,3,4-thiadiazol-2-yl)amino)ethyl)propiolamide]",21 nM

# Tested on: not listed separately
# Assay: Formaline test in rats (phase 2, chronic pain component)
# Format: in vivo
# Conditions: phase 2 (21 to 27 min after formaline injection)
# Procedure: III. Formaline Test in Rats: The formaline test (Dubuisson, D. and Dennis, S. G., 1977, Pain, 4, 161-174) represents a model for acute and chronic pain. A biphasic nociceptive reaction, which is recorded by observation of three clearly differentiable behavioural patterns, is induced by a single formaline injection into the dorsal side of a rear paw in freely mobile test animals. The reaction has two phases: Phase 1=Immediate reaction (duration up to 10 min; paw shaking, licking), Phase 2=Late reaction (after a rest phase; likewise, paw shaking, licking; duration up to 60 min). The 1st phase reflects a direct stimulation of the peripheral nocisensors with high spinal nociceptive input or glutamate release (acute pain phase); the 2nd phase reflects a spinal and peripheral hypersensitisation (chronic pain phase). In the investigations presented here, the chronic pain component (phase 2) was evaluated. Formaline with a volume of 50 μl and a concentration of 5% is administered subcutaneously into the dorsal side of the right rear paw of each animal. The substances to be tested are administered for 30 min before the formaline injection orally (p.o.), intravenously (i.v.) or intraperitoneally (i.p.). […]
row,SMILES,Formaline test (rat) i.v. Reduction in nociceptive behaviour over control at 10 mg/kg
1,"C[C@@H]1CN(c2cscn2)CCN1C(=O)C#Cc1cccc(Cl)c1 [Example 4, (R)-2-methyl-1-(3-(3-chloro-phenyl)-propiolyl)-4-(thiazol-4-yl)-piperazine]",75%
